According to ChEMBL document CHEMBL6182931, “Chemical Evolution of Aplithianine Class of Serine/Threonine Kinase Inhibitors” (J Med Chem, 2025):
Calls of active or inactive are those of the source. The calls are words filed in the database; no cut-off is given here.

Columns and labels:
[1] = target: Dual specificity protein kinase CLK1 (Homo sapiens) (UniProt P49759); assay: Inhibition of human CLK1 at 50 nM in presence of ATP by radiometric Hotspot kinase assay relative to control
[2] = target: Dual specificity tyrosine-phosphorylation-regulated kinase 1A (Homo sapiens) (UniProt Q13627); assay: Inhibition of human DYRK1A at 50 nM in presence of ATP by radiometric Hotspot kinase assay relative to control
[3] = target: Dual specificity protein kinase CLK4 (Homo sapiens) (UniProt Q9HAZ1); assay: Inhibition of human CLK4 at 50 nM in presence of ATP by radiometric Hotspot kinase assay relative to control
Sequence of Dual specificity protein kinase CLK4 (Homo sapiens) (Q9HAZ1 whole entry, looked up): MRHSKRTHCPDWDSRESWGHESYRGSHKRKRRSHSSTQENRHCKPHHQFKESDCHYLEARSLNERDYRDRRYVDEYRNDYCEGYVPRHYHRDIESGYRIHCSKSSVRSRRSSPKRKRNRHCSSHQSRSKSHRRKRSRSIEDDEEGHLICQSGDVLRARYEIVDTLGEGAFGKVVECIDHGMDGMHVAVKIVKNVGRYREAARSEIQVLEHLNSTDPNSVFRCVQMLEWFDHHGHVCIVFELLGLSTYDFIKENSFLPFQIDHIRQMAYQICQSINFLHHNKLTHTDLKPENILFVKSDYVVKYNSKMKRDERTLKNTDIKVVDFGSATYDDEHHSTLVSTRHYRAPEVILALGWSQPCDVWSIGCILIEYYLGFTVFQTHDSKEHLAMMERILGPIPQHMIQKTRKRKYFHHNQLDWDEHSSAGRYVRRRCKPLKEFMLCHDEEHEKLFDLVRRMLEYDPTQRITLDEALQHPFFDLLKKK

[4] = Drug metabolism in human liver microsomes at 0.1 uM measured after 60 mins; assay type: ADME, Microsome; details: 1 h
[5] = Metabolic stability in human liver microsomes assessed as intrinsic clearance at 0.1 uM measured after 60 mins; assay type: ADME, Microsome; details: 1 h
[6] = Inhibition of DNAJB1-PKAcalpha (unknown origin) overexpressed in mouse NIH/3T3 cells assessed as inhibition of CREB phosphorylation at Ser133 residue preincubated for 30 mins followed by forskolin addition and measured after 30 mins by fluorescence based multilabel reader analysis; assay type: cell-based; details: NIH3T3
[7] = Aqueous solubility of compound in PBS at pH 7.4 by shake-flask method; assay type: physicochemical
Albumin = Albumin (Homo sapiens, UniProt P02768); assay: Binding affinity to human serum albumin assessed as protein binding at 10 uM by equilibrium dialysis technique relative to control; assay type: ADME; details: isolated protein
MDA-MB-468 = assay: Antiproliferative activity against human MDA-MB-468 cells assessed as growth inhibition; assay type: functional, cell-based
[8] = target: RAC-alpha serine/threonine-protein kinase (Homo sapiens) (UniProt P31749); assay: Inhibition of human Akt1 at 50 nM in presence of ATP by radiometric Hotspot kinase assay
Sequence of RAC-alpha serine/threonine-protein kinase (Homo sapiens) (P31749 whole entry): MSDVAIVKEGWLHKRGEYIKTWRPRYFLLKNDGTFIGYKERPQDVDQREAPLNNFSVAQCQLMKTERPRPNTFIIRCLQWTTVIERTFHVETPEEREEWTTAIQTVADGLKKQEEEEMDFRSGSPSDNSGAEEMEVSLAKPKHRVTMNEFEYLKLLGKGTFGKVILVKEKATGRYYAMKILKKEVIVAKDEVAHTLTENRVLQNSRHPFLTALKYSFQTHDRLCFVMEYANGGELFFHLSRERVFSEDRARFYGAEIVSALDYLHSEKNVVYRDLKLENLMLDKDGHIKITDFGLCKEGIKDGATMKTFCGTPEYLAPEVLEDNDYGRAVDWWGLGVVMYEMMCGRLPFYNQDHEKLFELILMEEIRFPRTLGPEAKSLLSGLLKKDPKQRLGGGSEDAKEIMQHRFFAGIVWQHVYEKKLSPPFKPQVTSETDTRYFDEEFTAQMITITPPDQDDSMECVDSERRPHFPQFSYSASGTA

MOLT-4 = assay: Antiproliferative activity against human MOLT-4 cells assessed as growth inhibition; assay type: functional
OVCAR-4 = assay: Antiproliferative activity against human OVCAR-4 cells assessed as growth inhibition; assay type: functional, cell-based
hERG (KCNH2) = hERG (KCNH2) (Homo sapiens, UniProt Q12809); assay: Inhibition of human ERG expressed in CHO cells at 10 uM by electrophysiological analysis relative to control; assay type: toxicity, cell-based; details: CHO cells that express human ERG
LOX IMVI = assay: Antiproliferative activity against human LOX IMVI cells assessed as growth inhibition; assay type: functional
[9] = target: Receptor-type tyrosine-protein kinase FLT3 (Homo sapiens) (UniProt P36888); assay: Inhibition of human FLT3 at 50 nM in presence of ATP by radiometric Hotspot kinase assay relative to control
[10] = Apparent permeability across apical to basolateral side in human Caco-2 cells at 10 uM; assay type: ADME, cell-based; details: caco-2, 10 µM
[11] = target: NT-3 growth factor receptor (Homo sapiens) (UniProt Q16288); assay: Inhibition of human TRKC at 50 nM in presence of ATP by radiometric Hotspot kinase assay relative to control
SR = assay: Antiproliferative activity against human SR cells assessed as growth inhibition; assay type: functional
[12] = target: RAC-beta serine/threonine-protein kinase (Homo sapiens) (UniProt P31751); assay: Inhibition of human Akt2 at 50 nM in presence of ATP by radiometric Hotspot kinase assay
Sequence of RAC-beta serine/threonine-protein kinase (Homo sapiens) (P31751 whole entry): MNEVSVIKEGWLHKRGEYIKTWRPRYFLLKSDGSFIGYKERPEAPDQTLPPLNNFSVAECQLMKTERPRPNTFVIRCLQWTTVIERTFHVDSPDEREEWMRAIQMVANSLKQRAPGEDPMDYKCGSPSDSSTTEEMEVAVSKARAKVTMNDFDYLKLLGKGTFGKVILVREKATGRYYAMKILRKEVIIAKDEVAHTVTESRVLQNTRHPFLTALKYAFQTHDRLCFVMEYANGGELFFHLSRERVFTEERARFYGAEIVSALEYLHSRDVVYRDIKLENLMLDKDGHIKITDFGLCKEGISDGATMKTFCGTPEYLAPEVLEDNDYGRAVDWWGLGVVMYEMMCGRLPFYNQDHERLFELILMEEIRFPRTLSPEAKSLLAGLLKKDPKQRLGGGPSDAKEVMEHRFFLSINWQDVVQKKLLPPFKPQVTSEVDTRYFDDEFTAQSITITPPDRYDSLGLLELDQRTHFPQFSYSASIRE

NCI/ADR-RES = assay: Antiproliferative activity against human NCI/ADR-RES cells assessed as growth inhibition; assay type: functional, cell-based
[13] = target: T1, cGMP-dependent protein kinase 1 (Homo sapiens) (UniProt Q13976); details: dose 50.0 nM
T1 sequence (whole entry): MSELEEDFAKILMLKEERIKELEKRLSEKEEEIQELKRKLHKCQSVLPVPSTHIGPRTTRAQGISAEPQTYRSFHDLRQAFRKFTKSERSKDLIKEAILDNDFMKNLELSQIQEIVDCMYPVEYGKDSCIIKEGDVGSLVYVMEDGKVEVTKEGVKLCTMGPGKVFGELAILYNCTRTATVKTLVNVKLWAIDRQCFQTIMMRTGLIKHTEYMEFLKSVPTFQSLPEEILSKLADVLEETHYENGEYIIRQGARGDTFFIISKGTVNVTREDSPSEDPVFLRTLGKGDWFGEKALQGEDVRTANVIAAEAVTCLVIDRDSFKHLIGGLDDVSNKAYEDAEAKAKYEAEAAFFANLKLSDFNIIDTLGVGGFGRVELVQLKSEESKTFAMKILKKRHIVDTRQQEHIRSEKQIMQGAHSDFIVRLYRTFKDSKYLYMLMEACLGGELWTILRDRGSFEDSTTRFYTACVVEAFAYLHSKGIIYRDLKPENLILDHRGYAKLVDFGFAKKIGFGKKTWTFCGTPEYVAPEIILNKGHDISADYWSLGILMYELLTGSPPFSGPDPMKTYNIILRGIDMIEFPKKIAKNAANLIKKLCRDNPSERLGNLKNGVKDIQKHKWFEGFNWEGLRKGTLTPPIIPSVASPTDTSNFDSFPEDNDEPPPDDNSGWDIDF
Description: Inhibition of human PKG1alpha at 50 nM in presence of ATP by radiometric Hotspot kinase assay

[14] = target: Dual specificity protein kinase CLK2 (Homo sapiens) (UniProt P49760); assay: Inhibition of human CLK2 at 50 nM in presence of ATP by radiometric Hotspot kinase assay relative to control
Sequence of Dual specificity protein kinase CLK2 (Homo sapiens) (P49760 whole entry, looked up): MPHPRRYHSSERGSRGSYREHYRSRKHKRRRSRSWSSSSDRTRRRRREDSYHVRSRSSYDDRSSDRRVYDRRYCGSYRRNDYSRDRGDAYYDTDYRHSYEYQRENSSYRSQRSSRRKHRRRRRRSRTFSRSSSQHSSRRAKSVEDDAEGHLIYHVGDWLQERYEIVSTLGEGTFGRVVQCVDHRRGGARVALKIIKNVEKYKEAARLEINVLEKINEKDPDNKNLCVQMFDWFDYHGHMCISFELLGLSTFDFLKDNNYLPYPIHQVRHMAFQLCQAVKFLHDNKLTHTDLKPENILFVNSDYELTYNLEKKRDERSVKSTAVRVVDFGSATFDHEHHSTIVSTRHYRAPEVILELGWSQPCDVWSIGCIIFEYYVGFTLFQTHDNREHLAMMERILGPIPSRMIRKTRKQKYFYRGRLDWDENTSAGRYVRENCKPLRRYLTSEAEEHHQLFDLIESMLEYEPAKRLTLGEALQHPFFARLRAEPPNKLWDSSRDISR

[15] = Metabolic stability in human liver microsomes assessed as half-life at 0.1 uM measured after 60 mins; assay type: ADME, Microsome; details: 1 h
[16] = target: Dual specificity tyrosine-phosphorylation-regulated kinase 1B (Homo sapiens) (UniProt Q9Y463); assay: Inhibition of human DYRK1B at 50 nM in presence of ATP by radiometric Hotspot kinase assay relative to control
Sequence of Dual specificity tyrosine-phosphorylation-regulated kinase 1B (Homo sapiens) (Q9Y463 whole entry, looked up): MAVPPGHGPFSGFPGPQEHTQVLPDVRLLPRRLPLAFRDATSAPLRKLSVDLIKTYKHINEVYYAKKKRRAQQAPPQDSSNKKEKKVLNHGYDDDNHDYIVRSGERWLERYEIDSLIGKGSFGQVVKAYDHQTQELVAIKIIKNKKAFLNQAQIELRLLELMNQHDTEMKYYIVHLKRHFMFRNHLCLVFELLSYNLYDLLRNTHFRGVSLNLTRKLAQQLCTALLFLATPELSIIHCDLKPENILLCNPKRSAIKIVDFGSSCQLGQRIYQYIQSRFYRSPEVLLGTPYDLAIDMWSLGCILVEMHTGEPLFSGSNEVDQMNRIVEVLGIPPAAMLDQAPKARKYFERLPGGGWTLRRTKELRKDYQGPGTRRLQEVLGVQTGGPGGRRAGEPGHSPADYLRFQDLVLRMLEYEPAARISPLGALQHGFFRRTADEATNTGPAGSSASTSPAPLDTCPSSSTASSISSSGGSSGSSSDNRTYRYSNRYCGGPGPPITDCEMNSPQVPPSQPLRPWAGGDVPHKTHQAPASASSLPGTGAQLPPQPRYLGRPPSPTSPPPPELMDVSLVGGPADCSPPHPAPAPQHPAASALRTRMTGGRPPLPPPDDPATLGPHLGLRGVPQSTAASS

[17] = target: RAC-gamma serine/threonine-protein kinase (Homo sapiens) (UniProt Q9Y243); assay: Inhibition of human Akt3 at 50 nM in presence of ATP by radiometric Hotspot kinase assay
Sequence of RAC-gamma serine/threonine-protein kinase (Homo sapiens) (Q9Y243 whole entry): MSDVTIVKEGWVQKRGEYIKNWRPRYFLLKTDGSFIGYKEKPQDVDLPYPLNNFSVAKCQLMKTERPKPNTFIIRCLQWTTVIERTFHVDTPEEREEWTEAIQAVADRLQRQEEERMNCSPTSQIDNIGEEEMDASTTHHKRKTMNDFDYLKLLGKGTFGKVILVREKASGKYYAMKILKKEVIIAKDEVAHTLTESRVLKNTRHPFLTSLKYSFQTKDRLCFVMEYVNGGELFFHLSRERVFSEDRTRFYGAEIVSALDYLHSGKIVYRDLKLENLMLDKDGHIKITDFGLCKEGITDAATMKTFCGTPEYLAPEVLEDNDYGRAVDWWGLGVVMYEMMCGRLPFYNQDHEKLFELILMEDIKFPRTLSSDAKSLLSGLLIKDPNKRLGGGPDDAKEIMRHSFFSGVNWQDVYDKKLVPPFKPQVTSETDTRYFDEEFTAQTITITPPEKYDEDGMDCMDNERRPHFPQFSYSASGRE

[18] = Apparent permeability across basolateral to apical side in human Caco-2 cells at 10 uM; assay type: ADME, cell-based; details: caco-2, 10 µM
Homo sapiens [19] = species: Homo sapiens; assay: Induction of thermal stabilization of His-tagged DNAJB1-PKAcalpha (unknown origin) incubated for 15 min by differential scanning fluorometric analysis
[20] = target: cAMP-dependent protein kinase catalytic subunit beta (Homo sapiens) (UniProt P22694); assay: Inhibition of human PKAbeta at 50 nM in presence of ATP by radiometric Hotspot kinase assay
[21] = system: Panel NCI-60 (60 carcinoma cell lines); assay: Antiproliferative activity against human Panel NCI-60 (60 carcinoma cell lines) assessed as growth inhibition; assay type: functional
[22] = Inhibition of DNAJB1-PKAcalpha (unknown origin) using biotinylated-peptide substrate CREB incubated for 45 mins in presence of ATP and cAMP by ELISA; design: species or system Homo sapiens
Homo sapiens [23] = species: Homo sapiens; assay: Induction of thermal stabilization of His-tagged DNAJB1-PKAcalpha (unknown origin) assessed as change in melting temperature incubated for 15 min by differential scanning fluorometric analysis
[24] = target: T2, Dual specificity tyrosine-phosphorylation-regulated kinase 3 (Homo sapiens) (UniProt O43781); assay: Inhibition of human DYRK3 at 50 nM in presence of ATP by radiometric Hotspot kinase assay relative to control
T2 sequence (whole entry): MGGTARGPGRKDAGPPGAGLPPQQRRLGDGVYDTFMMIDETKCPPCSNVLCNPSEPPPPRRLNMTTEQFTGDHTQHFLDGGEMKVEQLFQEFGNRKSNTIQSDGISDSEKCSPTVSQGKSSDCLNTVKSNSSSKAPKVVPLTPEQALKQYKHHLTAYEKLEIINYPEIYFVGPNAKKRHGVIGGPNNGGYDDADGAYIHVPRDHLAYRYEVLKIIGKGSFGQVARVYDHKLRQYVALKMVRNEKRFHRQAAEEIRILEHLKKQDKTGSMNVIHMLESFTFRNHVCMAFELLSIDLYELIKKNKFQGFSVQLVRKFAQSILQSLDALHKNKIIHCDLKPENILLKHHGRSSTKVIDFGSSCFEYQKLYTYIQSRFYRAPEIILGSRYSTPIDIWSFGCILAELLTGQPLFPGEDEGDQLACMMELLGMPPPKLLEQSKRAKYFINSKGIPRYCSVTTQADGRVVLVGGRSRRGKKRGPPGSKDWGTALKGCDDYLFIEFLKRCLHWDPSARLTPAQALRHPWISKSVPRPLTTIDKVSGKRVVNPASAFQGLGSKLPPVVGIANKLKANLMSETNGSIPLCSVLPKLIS

[25] = target: Dual specificity protein kinase CLK3 (Homo sapiens) (UniProt P49761); assay: Inhibition of human CLK3 at 50 nM in presence of ATP by radiometric Hotspot kinase assay relative to control
Sequence of Dual specificity protein kinase CLK3 (Homo sapiens) (P49761 whole entry, looked up): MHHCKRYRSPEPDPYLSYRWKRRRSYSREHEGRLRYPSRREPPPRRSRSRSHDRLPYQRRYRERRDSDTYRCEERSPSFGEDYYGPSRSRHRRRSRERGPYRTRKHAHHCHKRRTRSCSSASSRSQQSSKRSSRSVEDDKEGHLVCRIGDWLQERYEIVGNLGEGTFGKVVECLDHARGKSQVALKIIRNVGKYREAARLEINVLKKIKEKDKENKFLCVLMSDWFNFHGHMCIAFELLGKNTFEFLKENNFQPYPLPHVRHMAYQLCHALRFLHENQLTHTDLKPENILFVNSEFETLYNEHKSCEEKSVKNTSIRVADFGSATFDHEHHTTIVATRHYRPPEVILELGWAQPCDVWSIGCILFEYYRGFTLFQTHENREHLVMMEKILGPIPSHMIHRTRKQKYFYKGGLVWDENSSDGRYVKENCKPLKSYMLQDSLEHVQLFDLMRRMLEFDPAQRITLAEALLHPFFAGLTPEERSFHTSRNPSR

[26] = target: T3, Dual specificity tyrosine-phosphorylation-regulated kinase 2 (Homo sapiens) (UniProt Q92630); assay: Inhibition of human DYRK2 at 50 nM in presence of ATP by radiometric Hotspot kinase assay relative to control
T3 sequence (whole entry): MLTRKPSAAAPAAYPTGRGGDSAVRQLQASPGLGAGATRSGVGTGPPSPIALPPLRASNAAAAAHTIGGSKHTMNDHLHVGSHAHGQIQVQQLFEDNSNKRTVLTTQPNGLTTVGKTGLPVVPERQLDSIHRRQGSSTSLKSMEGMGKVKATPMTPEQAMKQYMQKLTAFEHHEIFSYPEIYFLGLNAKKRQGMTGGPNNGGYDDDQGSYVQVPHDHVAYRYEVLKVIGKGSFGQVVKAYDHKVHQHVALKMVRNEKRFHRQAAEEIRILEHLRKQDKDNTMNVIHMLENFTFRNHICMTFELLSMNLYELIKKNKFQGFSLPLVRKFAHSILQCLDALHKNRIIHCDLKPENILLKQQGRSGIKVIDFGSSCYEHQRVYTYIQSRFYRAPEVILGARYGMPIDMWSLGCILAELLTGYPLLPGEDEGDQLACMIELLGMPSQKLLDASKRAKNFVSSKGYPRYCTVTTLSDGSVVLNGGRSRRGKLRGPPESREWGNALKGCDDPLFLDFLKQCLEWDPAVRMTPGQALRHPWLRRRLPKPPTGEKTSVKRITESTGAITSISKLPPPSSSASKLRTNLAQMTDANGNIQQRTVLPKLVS

[27] = target: Dual specificity tyrosine-phosphorylation-regulated kinase 4 (Homo sapiens) (UniProt Q9NR20); assay: Inhibition of human DYRK4 at 50 nM in presence of ATP by radiometric Hotspot kinase assay relative to control
Sequence of Dual specificity tyrosine-phosphorylation-regulated kinase 4 (Homo sapiens) (Q9NR20 whole entry): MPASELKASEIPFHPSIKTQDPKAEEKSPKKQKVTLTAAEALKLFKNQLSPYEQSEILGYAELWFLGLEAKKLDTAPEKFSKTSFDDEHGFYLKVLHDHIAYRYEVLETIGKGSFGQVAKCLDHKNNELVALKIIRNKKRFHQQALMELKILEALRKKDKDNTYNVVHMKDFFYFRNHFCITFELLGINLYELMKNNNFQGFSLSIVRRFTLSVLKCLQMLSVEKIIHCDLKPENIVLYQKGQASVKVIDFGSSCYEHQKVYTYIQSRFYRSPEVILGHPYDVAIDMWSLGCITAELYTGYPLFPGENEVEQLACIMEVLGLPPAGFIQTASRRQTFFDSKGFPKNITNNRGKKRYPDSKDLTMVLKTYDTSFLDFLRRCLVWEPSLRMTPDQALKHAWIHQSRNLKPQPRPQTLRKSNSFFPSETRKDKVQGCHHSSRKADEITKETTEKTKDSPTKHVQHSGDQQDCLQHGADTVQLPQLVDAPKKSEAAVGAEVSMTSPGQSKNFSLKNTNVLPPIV

[28] = target: cAMP-dependent protein kinase catalytic subunit alpha (Homo sapiens) (UniProt P17612); details: dose 50.0 nM
Description: Inhibition of human PKAalpha at 50 nM in presence of ATP by radiometric Hotspot kinase assay relative to control

Sequence of Dual specificity protein kinase CLK1 (Homo sapiens) (P49759 whole entry, looked up): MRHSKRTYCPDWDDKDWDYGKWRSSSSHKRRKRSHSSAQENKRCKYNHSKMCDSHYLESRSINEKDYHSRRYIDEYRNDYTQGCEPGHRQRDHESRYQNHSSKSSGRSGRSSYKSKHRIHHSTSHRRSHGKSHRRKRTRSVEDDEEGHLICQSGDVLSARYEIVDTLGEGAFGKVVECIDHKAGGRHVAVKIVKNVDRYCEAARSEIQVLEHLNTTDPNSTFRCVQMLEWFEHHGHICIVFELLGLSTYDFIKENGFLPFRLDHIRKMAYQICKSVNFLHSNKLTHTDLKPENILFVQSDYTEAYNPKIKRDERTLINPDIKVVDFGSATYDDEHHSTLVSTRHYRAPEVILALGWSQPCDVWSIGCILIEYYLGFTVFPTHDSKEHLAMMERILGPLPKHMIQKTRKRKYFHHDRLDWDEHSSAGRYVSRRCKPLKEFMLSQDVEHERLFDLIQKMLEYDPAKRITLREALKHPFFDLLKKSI

Compound	inhibition [1]	inhibition [2]	inhibition [3]	IC50 [6]	Activity (MDA-MB-468)	Activity (MOLT-4)	Activity (OVCAR-4)	GI50 (LOX IMVI)	Activity (SR)	Activity (NCI/ADR-RES)	inhibition [13]	inhibition [14]	inhibition [16]	Activity (Homo sapiens [19])	inhibition [20]	GI50 [21]	IC50 [22]	inhibition [24]	inhibition [25]	inhibition [26]	further results
Cc1c[nH]c2ncnc(N3C=C(C(=O)N4CCC[C@@H](N)C4)SCC3)c12	Active	Active	Active	3400 nM	Active	Active	inactive	> 1000 nM	Active	inactive	Active	Active	Active	Dose-dependent-effect	Active						Drug metabolism [4]: metabolite_notdetected; CLH [5]: < 115 µL/min/mg; solubility thermodynamic [7]: > 200 µM; PB (Albumin): 84%; inhibition [8]: Active; inhibition at 10 µM (hERG (KCNH2)): 28%; inhibition [9]: > 50%; Papp [10]: 0.1 10^-6 cm/s; inhibition [11]: > 50%; inhibition [12]: Active; t1/2 [15]: > 1 h; inhibition [17]: Active; Papp [18]: 6.6 10^-6 cm/s
C1=C(c2ccnc3[nH]ccc23)SCCN1c1ccnc2[nH]ccc12					Active		inactive	> 1000 nM		inactive						1550 nM	2800 nM				LC50 (MOLT-4): 780 nM; LC50 (SR): 600 nM
Cn1cncc1N1C=C(c2ccnc3[nH]ccc23)SCC1	< 50%	< 50%	< 50%	5560 nM	Active	Active	inactive	> 1000 nM	Active	inactive	Active	< 50%	< 50%	Dose-dependent-effect	Active		25 nM	< 50%	< 50%	< 50%	ΔTm (Homo sapiens [23]): 6 °C; inhibition [27]: < 50%; inhibition [28]: 47%
Cn1c(Br)nc(Br)c1C1=CN(c2ncnc3[nH]cnc23)CCS1					Active	Active	inactive	> 1000 nM	Active	inactive						360 nM					
C1=C(c2ccnc3[nH]ccc23)SCCN1c1ncnc2[nH]ccc12	< 50%	< 50%	< 50%		Active	Active	inactive	> 1000 nM	Active	inactive	Active	< 50%	< 50%		Active			< 50%	< 50%	< 50%	inhibition [27]: < 50%
